Assay [1] has as its target T1, 5HT-Transporter (Homo sapiens, UniProt P31645).
T1 construct: Human platelet membranes (Oceanix Biosciences Corporation, Hanover, Md., USA) were thawed; tissue Oceanix Biosciences Corporation; host or cells: human platelet membranes
Put plainly: Binding experiment for the 5HT-transporter ([3H]paroxetine, human platelet membranes). As to the method:
(§1) The interaction of a compound of Formula (I) with α2C-adrenoceptor receptors was assessed in in vitro radioligand binding experiments. In general, a low concentration of a radioligand with a high binding affinity for a particular receptor or transporter is incubated with a sample of a tissue preparation enriched in a particular receptor or transporter or with a preparation of cells expressing cloned human receptors in a buffered medium. During the incubation, the radioligand binds to the receptor or transporter. When equilibrium of binding is reached, the receptor bound radioactivity is separated from the non-bound radioactivity, and the receptor- or transporter-bound activity is counted. The interaction of the test compounds with the receptor is assessed in competition binding experiments. Various concentrations of the test compound are added to the incubation mixture containing the receptor- or transporter preparation and the radioligand. The test compound in proportion to its binding affinity and its concentration inhibits binding of the radioligand. The radioligand used for hα2A and hα2C receptor binding was [^3H]-raulwolscine.
Human platelet membranes (Oceanix Biosciences Corporation, Hanover, Md., USA) were thawed, diluted in buffer (Tris-HCl 50 mM, 120 mM NaCl and 5 mM KCl) and quickly (max 3 s) homogenised with an Ultraturrax homogenizer. […] Incubation was stopped by rapid filtration of the incubation mixture over GF/B filters, pre-wetted with 0.1% polyethyleneamine, using a Filtermate196 harvester (Packard, Meriden, Conn.). Filters were rinsed extensively with ice-cold buffer and radioactivity on the filters was counted in a Topcount liquid scintillation counter (Packard, Meriden, Conn.). Data were expressed as cpm. Imipramine (at 1 μM final concentration) was used to determine the non-specific binding.
(§2) Data from assays in the presence of compound were calculated as a percentage of total binding measured in the absence of test compound. Inhibition curves, plotting percent of total binding versus the log value of the concentration of the test compound, were automatically generated, and sigmoidal inhibition curves were fitted using non-linear regression. The pIC50 values of test compounds were derived from individual curves.

Assay [2] deals with T2, human adrenergic-α2C receptor (Homo sapiens, UniProt P18825).
T2 construct: expressed in transfected cells; host or cells: CHO cells, stably transfected; membranes
T2 sequence (P18825 1-462): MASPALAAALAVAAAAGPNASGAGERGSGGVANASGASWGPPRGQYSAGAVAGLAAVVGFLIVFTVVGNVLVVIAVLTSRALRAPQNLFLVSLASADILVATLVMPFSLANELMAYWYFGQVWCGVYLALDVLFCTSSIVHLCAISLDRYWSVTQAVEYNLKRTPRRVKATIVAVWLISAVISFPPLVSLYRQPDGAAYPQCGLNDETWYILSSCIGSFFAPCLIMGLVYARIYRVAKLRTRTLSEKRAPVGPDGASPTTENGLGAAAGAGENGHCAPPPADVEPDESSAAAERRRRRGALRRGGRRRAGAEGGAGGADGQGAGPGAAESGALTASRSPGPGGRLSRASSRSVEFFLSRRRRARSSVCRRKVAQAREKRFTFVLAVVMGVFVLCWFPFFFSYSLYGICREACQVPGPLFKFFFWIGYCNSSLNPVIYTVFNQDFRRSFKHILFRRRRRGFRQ
The experiment in a line: Radioligand binding experiment for α2C-adrenoceptor ([3H]raulwolscine, CHO cell membranes). The procedure:
as §1
(§3) CHO cells, stabile transfected with human adrenergic-α2A and α2C receptor cDNA, were cultured in Dulbecco's Modified Eagle's Medium (DMEM)/Nutrient mixture Ham's F12 (ratio 1:1) (Gibco, Gent-Belgium) supplemented with 10% heat inactivated fetal calf serum (Life Technologies, Merelbeke-Belgium) and antibiotics (100 IU/ml penicillin G, 100 μg/ml streptomycin sulphate, 110 μg/ml pyruvic acid and 100 μg/ml L-glutamine). One day before collection, cells were induced with 5 mM sodiumbutyrate. Upon 80-90% of confluence, cells were scraped in phosphate buffered saline without Ca^2+ and Mg^2+ and collected by centrifugation at 1500×g for 10 minutes. The cells were homogenised in Tris-HCl 50 mM using an Ultraturrax homogenizer and centrifuged for 10 minutes at 23,500×g. The pellet was washed once by resuspension and rehomogenization and the final pellet was resuspended in Tris-HCl, divided in 1 ml aliquots and stored at −70° C.
(§4) Membranes were thawed and re-homogenized in incubation buffer (glycylglycine 25 mM, pH 8.0). […] Filters were rinsed extensively with ice-cold rinsing buffer (Tris-HCl 50 mM pH 7.4). Filter-bound radioactivity was determined by scintillation counting in a Topcount (Packard, Meriden, Conn.) and results were expressed as counts per minute (cpm). Non-specific binding was determined in the presence of 1 μM oxymetazoline for the hα2A receptor and 1 μM spiroxatrine for hα2C receptors.
as §2

Assay [3] addresses T3, human adrenergic-α2A receptor (Homo sapiens, UniProt P08913).
T3 construct: expressed in transfected cells; host or cells: CHO cells, stably transfected; membranes
T3 sequence (P08913 1-465): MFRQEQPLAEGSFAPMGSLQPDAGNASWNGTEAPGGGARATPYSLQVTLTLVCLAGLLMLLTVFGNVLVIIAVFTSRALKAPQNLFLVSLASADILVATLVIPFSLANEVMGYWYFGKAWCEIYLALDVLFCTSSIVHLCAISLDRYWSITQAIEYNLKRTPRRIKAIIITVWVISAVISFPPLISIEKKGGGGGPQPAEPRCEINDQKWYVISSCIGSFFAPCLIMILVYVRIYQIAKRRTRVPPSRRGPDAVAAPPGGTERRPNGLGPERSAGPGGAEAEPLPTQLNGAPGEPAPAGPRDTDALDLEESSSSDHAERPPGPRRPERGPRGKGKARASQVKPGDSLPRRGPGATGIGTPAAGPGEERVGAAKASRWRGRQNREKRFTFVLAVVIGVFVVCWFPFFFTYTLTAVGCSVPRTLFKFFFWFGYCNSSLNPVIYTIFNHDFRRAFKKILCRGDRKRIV
Put plainly: Radioligand binding experiment for hα2A receptor ([3H]raulwolscine, CHO cell membranes). As to the method: as §1, §3, §4, §2

The mark [4] stands for this setting: [3H]paroxetine 0.5 nM, read-out: h-5HTT pIC50 (converted).
The mark [5] stands for this setting: [3H]raulwolscine 1 nM, membranes of CHO cells transfected with human α2C receptor, read-out: h-α2C pIC50 (converted).
The mark [6] stands for this setting: [3H]raulwolscine 1 nM, membranes of CHO cells transfected with human α2A receptor, read-out: h-α2A pIC50 (converted).
Setting [7] is: h-5HTT pIC50, [3H]paroxetine 0.5 nM.

Like-named read-outs stand apart in the source and are kept apart here.

T1 sequence (P31645 whole entry): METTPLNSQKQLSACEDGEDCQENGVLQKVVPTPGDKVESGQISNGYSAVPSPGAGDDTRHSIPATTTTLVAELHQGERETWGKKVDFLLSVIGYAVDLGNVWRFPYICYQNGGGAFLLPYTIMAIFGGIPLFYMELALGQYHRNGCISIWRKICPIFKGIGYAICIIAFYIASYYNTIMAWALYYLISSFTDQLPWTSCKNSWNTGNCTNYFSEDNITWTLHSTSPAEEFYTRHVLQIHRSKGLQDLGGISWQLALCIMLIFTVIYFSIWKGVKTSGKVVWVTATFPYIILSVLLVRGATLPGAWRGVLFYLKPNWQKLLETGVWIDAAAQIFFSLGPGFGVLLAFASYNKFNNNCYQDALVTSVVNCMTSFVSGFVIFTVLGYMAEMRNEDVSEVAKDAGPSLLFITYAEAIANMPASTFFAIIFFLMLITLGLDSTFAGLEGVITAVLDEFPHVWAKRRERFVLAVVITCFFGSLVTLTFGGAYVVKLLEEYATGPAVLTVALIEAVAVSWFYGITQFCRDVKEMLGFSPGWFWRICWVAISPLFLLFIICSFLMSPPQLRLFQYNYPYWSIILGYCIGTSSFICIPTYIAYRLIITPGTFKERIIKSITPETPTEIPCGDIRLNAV

For the compound `O=c1c(NC2CCN(Cc3ccc(-c4ccccc4)cc3)CC2)nccn1Cc1ccncc1` [Compound 1-10], the values for the IC50 in assay [1] (setting [4]), in assay [2] (setting [5]) and in assay [3] (setting [6]) were over 10000 nM, 794 nM and 3160 nM, respectively.
On the same counts, the results for `O=c1c(NC2CCN(Cc3ccc(-c4ccccc4)cc3)CC2)nccn1Cc1ccc2ccccc2n1` [Compound 1-11] are 501 nM, 794 nM and 631 nM.
On the same counts, the results for `CC(C)(C)OC(=O)NCCCn1ccnc(N2CCN(Cc3ccc(-c4ccccc4)cc3)CC2)c1=O` [Compound 2-1] are 1580 nM, 631 nM and 1260 nM.
In the same order, the values of `O=C1c2ccccc2C(=O)N1CCCn1ccnc(N2CCN(Cc3ccc(-c4ccccc4)cc3)CC2)c1=O` [Compound 2-2] are 200 nM, 316 nM and 1000 nM.
Regarding `NCc1ccc(Cn2ccnc(N3CCN(Cc4cccc(-c5ccccc5)c4)CC3)c2=O)cc1` [Compound 3-1], the IC50 is 5010 nM in assay [1] (setting [4]), 631 nM in assay [2] (setting [5]) and 79.4 nM in assay [3] (setting [6]).
For the compound `CC(C)(C)OC(=O)NCc1ccc(Cn2ccnc(N3CCN(Cc4cccc(-c5ccccc5)c4)CC3)c2=O)cc1` [Compound 3-2], the IC50 in assay [1] (setting [4]) was 6310 nM; in assay [2] (setting [5]) it was 251 nM; in assay [3] (setting [6]), 200 nM.
In the same order, the values of `O=c1[nH]ccnc1N1CCN(Cc2cccc(-c3ccccc3)c2)CC1` [Compound 3-3] are over 10000 nM, 316 nM and 316 nM.
In the same order, the values of `O=c1c(N2CCN(Cc3cccc(-c4ccccc4)c3)CC2)nccn1CC=Cc1ccccc1` [Compound 3-6] are 5010 nM, 794 nM and 794 nM.
In the same order, the values of `O=C1c2ccccc2C(=O)N1CCCn1ccnc(N2CCN(Cc3cccc(-c4ccccc4)c3)CC2)c1=O` [Compound 3-9] are 794 nM, 794 nM and 1580 nM.
With `O=c1c(N2CCC(c3ccccc3)CC2)nccn1Cc1ccc2ccccc2c1` [Compound 4-1], the IC50 in assay [1] (setting [4]) was 3980 nM; in assay [2] (setting [5]), 501 nM; in assay [3] (setting [6]) it was 501 nM.
Take `NCc1ccc(Cn2ccnc(N3CCC(c4ccccc4)CC3)c2=O)cc1` [Compound 4-2]: the values for the IC50 in assay [1] (setting [4]), in assay [2] (setting [5]) and in assay [3] (setting [6]) were over 10000 nM, 794 nM and 501 nM, respectively.
On the same counts, the results for `CC(C)(C)OC(=O)NCc1ccc(Cn2ccnc(N3CCC(c4ccccc4)CC3)c2=O)cc1` [Compound 4-3] are over 10000 nM, 631 nM and 200 nM.
On the same counts, the results for `NCc1ccc(Cn2ccnc(NC3CCN(Cc4ccccc4)CC3)c2=O)cc1` [Compound 5-2] are over 10000 nM, 631 nM and 1000 nM.
In the same order, the values of `O=C1c2ccccc2C(=O)N1CCCn1ccnc(NC2CCN(Cc3ccccc3)CC2)c1=O` [Compound 5-5] are 3980 nM, 398 nM and 5010 nM.
On to `NCc1ccc(Cn2ccnc(NC3CCN(CCc4ccccc4)CC3)c2=O)cc1` [Compound 6-3], for which the IC50 in assay [1] (setting [4]) is over 10000 nM; in assay [2] (setting [5]), 398 nM; in assay [3] (setting [6]) it was 1260 nM.
On the same counts, the results for `CC(C)(C)OC(=O)NCCCn1ccnc(NC2CCN(CCc3ccccc3)CC2)c1=O` [Compound 6-4] are over 10000 nM, 631 nM and 3160 nM.
In the same order, the values of `O=c1c(NC2CCN(CCc3ccccc3)CC2)nccn1CCN1CCCCC1` [Compound 6-5] are over 10000 nM, 316 nM and 1580 nM.
In the same order, the values of `O=C1c2ccccc2C(=O)N1CCCn1ccnc(NC2CCN(CCc3ccccc3)CC2)c1=O` [Compound 6-6] are 1580 nM, 158 nM and 3980 nM.
For the compound `O=c1c(NC2CCN(CCc3ccccc3)CC2)nccn1Cc1ccccc1Br` [Compound 6-7], the IC50 in assay [1] (setting [4]) was 5010 nM; in assay [2] (setting [5]) it was 398 nM; in assay [3] (setting [6]), 794 nM.
As for `O=c1c(NC2CCN(CCc3ccccc3)CC2)nccn1Cc1cccc(Br)c1` [Compound 6-8], the IC50 was 5010 nM in assay [1] (setting [7]), 398 nM in assay [2] and 1000 nM in assay [3].
For the compound `O=c1c(NC2CCN(CCc3ccccc3)CC2)nccn1Cc1ccc(Br)cc1` [Compound 6-9], the IC50 in assay [1] (setting [4]) was 6310 nM; in assay [2] (setting [5]) it was 316 nM; in assay [3] (setting [6]) it was 1260 nM.
On the same counts, the results for `NCc1ccc(Cn2ccnc(NC3CCN(CCCc4ccccc4)CC3)c2=O)cc1` [Compound 7-1] are 794 nM, 100 nM and 316 nM.
As for `CC(C)(C)OC(=O)NCCCn1ccnc(NC2CCN(CCCc3ccccc3)CC2)c1=O` [Compound 7-2], the IC50 is 3160 nM in assay [1] (setting [4]), 79.4 nM in assay [2] (setting [5]) and 794 nM in assay [3] (setting [6]).
In the same order, the values of `CC(C)(C)OC(=O)NCc1ccc(Cn2ccnc(NC3CCN(CCCc4ccccc4)CC3)c2=O)cc1` [Compound 7-3] are 1580 nM, 398 nM and 1580 nM.
On the same counts, the results for `O=c1c(NC2CCN(CCCc3ccccc3)CC2)nccn1CCN1CCCCC1` [Compound 7-4] are over 10000 nM, 126 nM and 1580 nM.
For `O=C1c2ccccc2C(=O)N1CCCn1ccnc(NC2CCN(CCCc3ccccc3)CC2)c1=O` [Compound 7-5], the IC50 in assay [1] (setting [7]) was 1000 nM; in assay [2] it was 20 nM; in assay [3], 501 nM.
Take `COC(=O)Cn1ccnc(NC2CCN(CCCc3ccccc3)CC2)c1=O` [Compound 7-6]: the values for the IC50 in assay [1] (setting [4]), in assay [2] (setting [5]) and in assay [3] (setting [6]) were over 10000 nM, 794 nM and 3980 nM, respectively.
Regarding `O=c1[nH]ccnc1NC1CCN(CCCc2ccccc2)CC1` [Compound 7-7], the IC50 was over 10000 nM in assay [1] (setting [7]), 794 nM in assay [2] and 1580 nM in assay [3].

The values are drawn from patent US20100105694A1, “SUBSTITUTED PYRAZINONE DERIVATIVES FOR USE AS A MEDICINE” (priority 2006, published 2010).
